Data published in US20250270191A1, “QUINOLONE BCL6 BIFUNCTIONAL DEGRADERS” (Treeline Biosciences, Inc., priority 2022, published 2025).

How the values were obtained:
[1] = Pharmacokinetic assessment in male CD-1 mice (IV and PO); format: in vivo; settings: mouse, plasma
Description: Pharmacokinetics (PK) studies were conducted on male CD-1 mice by two delivery routes: intravenous (IV) injection and oral gavage (PO). Mice for the IV group (n=3) were allowed free access to food and water and mice for the PO group (n=3) were fasted 6-8 hours prior to dosing. The test articles were formulated in solution for the IV route (commonly 5% DMSO/10% Solutol HS15/85% water (pH 5)) and solution or suspension for the PO route (commonly 100% PEG400). On the day of the experiment, test article was administered via vein injection (commonly 1 mg/kg) for IV route or via oral gavage (commonly 10 mg/kg) for PO route, respectively. Blood samples were collected via the saphenous vein using a needle (commonly 20G) at 0.83 to 24 hours post dose. Approximately 30 μL of blood per timepoint was collected into pre-chilled tubes using K2EDTA as the anti-coagulant. After collection of blood samples at each time point, the blood samples were stored on ice. Blood samples were centrifuged within 0.5 hour of collection to separate plasma. Centrifugation was conducted at 2500×g for 15 minutes at 4° C. Plasma samples were immediately acidified (commonly 0.1M sodium citrate (pH=5) buffer). The samples were then submitted to LC-MS/MS for sample analysis. Pharmacokinetics parameters, including clearance (IV), area under the curve (AUC), and oral bioavailability (% F) were calculated by non-compartmental model.

[2] = biological target: T1, Human BCL6 protein (N-terminal HiBiT tagged BCL6 in HT1080 cells) (Homo sapiens, UniProt P41182+Q96SW2); assay: HiBiT based BCL6 degradation assay; format: cell-based; settings: HT1080 cells expressing N-terminal HiBiT tagged BCL6; 5 hours incubation; BCL6 degradation normalized with DMSO control
T1 construct: Human BCL6 protein coding open reading frame; expressed in transfected cells; host or cells: HT1080 (ATCC CCL-121), stably transduced with lentivirus pLV-UBC-N-HiBiT-BCL6-PGK-puro
Outline: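 HT1080 cells stably expressing N-terminal HiBiT-BCL6 were treated with compound dilution series for 5 h at 37° C. in RPMI 1640 with 10% FBS. HiBiT lytic luminescence read after 15 min; degradation normalized to DMSO, with curves fitted by four-parameter logistic model.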

Row | Ymin (5 hr) [2] | SMILES | further results
1 | ++++ (Ymin ≤ 25%) | CNC(=O)COc1cc2cc(Nc3nc(N4CC5(CCC(Nc6ccc7c(C8CCC(=O)NC8=O)nn(C)c7c6)CC5)C4)ncc3Cl)ccc2n(C)c1=O (centres unmarked) [Compound 341, 2-((6-((5-chloro-2-(7-((3-(2,6-dioxopiperidin-3-yl)-1-methyl-1H-indazol-6-yl)amino)-2-azaspiro[3.5]nonan-2-yl)pyrimidin-4-yl)amino)-1-methyl-2-oxo-1,2-dihydroquinolin-3-yl)oxy)-N-methylacetamide] | 
2 | +++ (25% < Ymin ≤ 50%) | CNC(=O)COc1cc2cc(Nc3nc(N4CC5(CCC(Nc6cccc7c(C8CCC(=O)NC8=O)nn(C)c67)CC5)C4)ncc3Cl)ccc2n(C)c1=O (centres unmarked) [Compound 342, 2-((6-((5-chloro-2-(7-((3-(2,6-dioxopiperidin-3-yl)-1-methyl-1H-indazol-7-yl)amino)-2-azaspiro[3.5]nonan-2-yl)pyrimidin-4-yl)amino)-1-methyl-2-oxo-1,2-dihydroquinolin-3-yl)oxy)-N-methylacetamide] | 
3 | +++ (25% < Ymin ≤ 50%) | CNC(=O)COc1cc2cc(Nc3nc(N4CCC5(CCC(Nc6ccc7c(C8CCC(=O)NC8=O)nn(C)c7c6)CC5)C4)ncc3Cl)ccc2n(C)c1=O (centres unmarked) [Compound 343, 2-((6-((5-chloro-2-(8-((3-(2,6-dioxopiperidin-3-yl)-1-methyl-1H-indazol-6-yl)amino)-2-azaspiro[4.5]decan-2-yl)pyrimidin-4-yl)amino)-1-methyl-2-oxo-1,2-dihydroquinolin-3-yl)oxy)-N-methylacetamide] | 
4 | ++ (50% < Ymin ≤ 70%) | CNC(=O)COc1cc2cc(Nc3nc(N4CCC5(CCC(Nc6cccc7c(C8CCC(=O)NC8=O)nn(C)c67)CC5)C4)ncc3Cl)ccc2n(C)c1=O (centres unmarked) [Compound 344, 2-((6-((5-chloro-2-(8-((3-(2,6-dioxopiperidin-3-yl)-1-methyl-1H-indazol-7-yl)amino)-2-azaspiro[4.5]decan-2-yl)pyrimidin-4-yl)amino)-1-methyl-2-oxo-1,2-dihydroquinolin-3-yl)oxy)-N-methylacetamide] | 
5 | ++++ (Ymin ≤ 25%) | CNC(=O)COc1cc2cc(Nc3nc(N4CCN(C(=O)C5CCN(c6cccc7c(C8CCC(=O)NC8=O)nn(C)c67)CC5)CC4)ncc3Cl)ccc2n(C)c1=O (centres unmarked) [Compound 345, 2-((6-((5-chloro-2-(4-(1-(3-(2,6-dioxopiperidin-3-yl)-1-methyl-1H-indazol-7-yl)piperidine-4-carbonyl)piperazin-1-yl)pyrimidin-4-yl)amino)-1-methyl-2-oxo-1,2-dihydroquinolin-3-yl)oxy)-N-methylacetamide] | 
6 | ++++ (Ymin ≤ 25%) | CNC(=O)COc1cc2cc(Nc3cc(N4CCN(CC5CCN(c6cccc7c(C8CCC(=O)NC8=O)nn(C)c67)CC5)CC4)ncc3Cl)ccc2n(C)c1=O (centres unmarked) [Compound 346, 2-((6-((5-chloro-2-(4-((1-(3-(2,6-dioxopiperidin-3-yl)-1-methyl-1H-indazol-7-yl)piperidin-4-yl)methyl)piperazin-1-yl)pyridin-4-yl)amino)-1-methyl-2-oxo-1,2-dihydroquinolin-3-yl)oxy)-N-methylacetamide] | 
7 | ++++ (Ymin ≤ 25%) | CC(=O)COc1cc2cc(Nc3nc(N4CCN(CC5CCN(c6cccc7c(C8CCC(=O)NC8=O)nn(C)c67)CC5)[C@@H](C)C4)ncc3Cl)ccc2n(C)c1=O (stereo partly drawn) [Compound 347a, 3-(7-(4-(((S)-4-(5-chloro-4-((1-methyl-2-oxo-3-(2-oxopropoxy)-1,2-dihydroquinolin-6-yl)amino)pyrimidin-2-yl)-2-methylpiperazin-1-yl)methyl)piperidin-1-yl)-1-methyl-1H-indazol-3-yl)piperidine-2,6-dione] | 
8 | ++++ (Ymin ≤ 25%) | CC(=O)COc1cc2cc(Nc3nc(N4CCC5(CCN(CC6CCN(c7ccc8c(C9CCC(=O)NC9=O)nn(C)c8c7)CC6)CC5)CC4)ncc3Cl)ccc2n(C)c1=O (centres unmarked) [Compound 348, 3-(6-(4-((9-(5-chloro-4-((1-methyl-2-oxo-3-(2-oxopropoxy)-1,2-dihydroquinolin-6-yl)amino)pyrimidin-2-yl)-3,9-diazaspiro[5.5]undecan-3-yl)methyl)piperidin-1-yl)-1-methyl-1H-indazol-3-yl)piperidine-2,6-dione] | 

The remaining lines, values behind:

Row | SMILES | Ymin (5 hr) [2] | further results
9 | CNC(=O)COc1cc2cc(Nc3nc(N4CCN(CC5CCN(c6cccc7c(C8CCC(=O)NC8=O)nn(C)c67)CC5)CC4)ncc3Cl)ccc2n(C)c1=O (centres unmarked) [Compound 101, 2-((6-((5-chloro-2-(4-((1-(3-(2,6-dioxopiperidin-3-yl)-1-methyl-1H-indazol-7-yl)piperidin-4-yl)methyl)piperazin-1-yl)pyrimidin-4-yl)amino)-1-methyl-2-oxo-1,2-dihydroquinolin-3-yl)oxy)-N-methylacetamide] | ++++ (Ymin ≤ 25%) | clearance ([1]; clearance (IV), commonly 1 mg/kg, non-compartmental model): 12.8 mL/min/kg; bioavailability ([1]; oral bioavailability, PO commonly 10 mg/kg vs IV commonly 1 mg/kg): 76.4%; Cmax ([1]; route not given): 3.4 µM; AUC(0-inf) ([1]; route not given, non-compartmental model): 12.6 µM·h
10 | CNC(=O)COc1cc2cc(Nc3nc(N4CCC(CN5CCN(c6ccc7c(C8CCC(=O)NC8=O)nn(C)c7c6)CC5)CC4)ncc3Cl)ccc2n(C)c1=O (centres unmarked) [Compound 334, 2-((6-((5-chloro-2-(4-((4-(3-(2,6-dioxopiperidin-3-yl)-1-methyl-1H-indazol-6-yl)piperazin-1-yl)methyl)piperidin-1-yl)pyrimidin-4-yl)amino)-1-methyl-2-oxo-1,2-dihydroquinolin-3-yl)oxy)-N-methylacetamide] | ++++ (Ymin ≤ 25%) | 
11 | CNC(=O)COc1cc2cc(Nc3nc(N4CCCC5(CCCN(c6ccc7c(C8CCC(=O)NC8=O)nn(C)c7c6)C5)C4)ncc3Cl)ccc2n(C)c1=O (centres unmarked) [Compound 335, 2-((6-((5-chloro-2-(8-(3-(2,6-dioxopiperidin-3-yl)-1-methyl-1H-indazol-6-yl)-2,8-diazaspiro[5.5]undecan-2-yl)pyrimidin-4-yl)amino)-1-methyl-2-oxo-1,2-dihydroquinolin-3-yl)oxy)-N-methylacetamide] | ++ (50% < Ymin ≤ 70%) | 
12 | CNC(=O)COc1cc2cc(Nc3nc(N4C[C@@H](C)N(CC5CCN(c6cccc7c(C8CCC(=O)NC8=O)nn(C)c67)CC5)[C@@H](C)C4)ncc3Cl)ccc2n(C)c1=O (stereo partly drawn) [Compound 336a, 2-((6-((5-chloro-2-((3S,5R)-4-((1-(3-(2,6-dioxopiperidin-3-yl)-1-methyl-1H-indazol-7-yl)piperidin-4-yl)methyl)-3,5-dimethylpiperazin-1-yl)pyrimidin-4-yl)amino)-1-methyl-2-oxo-1,2-dihydroquinolin-3-yl)oxy)-N-methylacetamide] | ++++ (Ymin ≤ 25%) | 
13 | CNC(=O)COc1cc2cc(Nc3nc(N4CCN(C(C)(C)C5CCN(c6cccc7c(C8CCC(=O)NC8=O)nn(C)c67)CC5)CC4)ncc3Cl)ccc2n(C)c1=O (centres unmarked) [Compound 337, 2-((6-((5-chloro-2-(4-(2-(1-(3-(2,6-dioxopiperidin-3-yl)-1-methyl-1H-indazol-7-yl)piperidin-4-yl)propan-2-yl)piperazin-1-yl)pyrimidin-4-yl)amino)-1-methyl-2-oxo-1,2-dihydroquinolin-3-yl)oxy)-N-methylacetamide] | ++++ (Ymin ≤ 25%) | 
14 | CNC(=O)COc1cc2cc(Nc3nc(N4CC5CCC(Nc6ccc7c(C8CCC(=O)NC8=O)nn(C)c7c6)CC5C4)ncc3Cl)ccc2n(C)c1=O (centres unmarked) [Compound 338, 2-((6-((5-chloro-2-(5-((3-(2,6-dioxopiperidin-3-yl)-1-methyl-1H-indazol-6-yl)amino)octahydro-2H-isoindol-2-yl)pyrimidin-4-yl)amino)-1-methyl-2-oxo-1,2-dihydroquinolin-3-yl)oxy)-N-methylacetamide] | ++ (50% < Ymin ≤ 70%) | 
15 | CNC(=O)COc1cc2cc(Nc3nc(N4CC5CCC(Nc6cccc7c(C8CCC(=O)NC8=O)nn(C)c67)CC5C4)ncc3Cl)ccc2n(C)c1=O (centres unmarked) [Compound 339, 2-((6-((5-chloro-2-(5-((3-(2,6-dioxopiperidin-3-yl)-1-methyl-1H-indazol-7-yl)amino)octahydro-2H-isoindol-2-yl)pyrimidin-4-yl)amino)-1-methyl-2-oxo-1,2-dihydroquinolin-3-yl)oxy)-N-methylacetamide] | ++ (50% < Ymin ≤ 70%) | 
16 | CNC(=O)COc1cc2cc(Nc3nc(N4CCN(C(C)(C)C5CCN(c6ccc7c(C8CCC(=O)NC8=O)nn(C)c7c6)CC5)CC4)ncc3Cl)ccc2n(C)c1=O (centres unmarked) [Compound 340, 2-((6-((5-chloro-2-(4-(2-(1-(3-(2,6-dioxopiperidin-3-yl)-1-methyl-1H-indazol-6-yl)piperidin-4-yl)propan-2-yl)piperazin-1-yl)pyrimidin-4-yl)amino)-1-methyl-2-oxo-1,2-dihydroquinolin-3-yl)oxy)-N-methylacetamide] | +++ (25% < Ymin ≤ 50%) | 
